Results published in patent US6995167B2 (priority 1999, dated 2006).

Biological target: α7 nAChR subtype (Rattus norvegicus, UniProt Q05941)
Format: binding
Details: read-out: KD of radioligand

Chain of α7 nAChR subtype (Q05941 23-502 limits assumed): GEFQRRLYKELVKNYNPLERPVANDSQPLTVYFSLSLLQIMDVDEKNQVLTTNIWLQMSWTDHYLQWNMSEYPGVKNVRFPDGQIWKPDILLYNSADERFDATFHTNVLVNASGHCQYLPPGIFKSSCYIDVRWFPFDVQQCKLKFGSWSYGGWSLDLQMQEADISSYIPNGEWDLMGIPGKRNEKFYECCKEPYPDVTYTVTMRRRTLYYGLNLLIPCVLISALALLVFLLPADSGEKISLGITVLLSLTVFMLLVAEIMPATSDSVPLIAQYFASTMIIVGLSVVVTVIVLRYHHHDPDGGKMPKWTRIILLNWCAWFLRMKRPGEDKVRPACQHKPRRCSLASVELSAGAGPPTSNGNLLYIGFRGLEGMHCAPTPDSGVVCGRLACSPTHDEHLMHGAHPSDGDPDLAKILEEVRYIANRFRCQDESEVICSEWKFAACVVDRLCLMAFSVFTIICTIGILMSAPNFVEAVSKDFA

For ^125I-α-Bungarotoxin [^125I-α-BTX], the Kd was 1.67 nM.
